From PubChem BioAssay (NCI)
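Following 48 hours of exposure in 96-well plates, responses at five concentrations were used to interpolate endpoints linearly. TGI: concentration producing complete growth inhibition.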

Experiments:
Assay in all cases: NCI tumour cell line growth inhibition, 48 h
HCT-15 colon = system: HCT-15 colon
MOLT-4 leukemia = system: MOLT-4 leukemia
PC-3 prostate = system: PC-3 prostate
SF-295 CNS = system: SF-295 CNS
UACC-62 melanoma = system: UACC-62 melanoma
SK-MEL-5 melanoma = system: SK-MEL-5 melanoma
RXF 393 renal = system: RXF 393 renal
LOX IMVI melanoma = system: LOX IMVI melanoma
HS 578T breast = system: HS 578T breast
HCT-116 colon = system: HCT-116 colon
TK-10 renal = system: TK-10 renal
MALME-3M melanoma = system: MALME-3M melanoma
T-47D breast = system: T-47D breast
SW-620 colon = system: SW-620 colon
NCI-H226 lung = system: NCI-H226 lung
HOP-62 NSCLC = system: HOP-62 NSCLC
SN12C renal = system: SN12C renal
MDA-MB-231 breast = system: MDA-MB-231 breast
OVCAR-3 ovarian = system: OVCAR-3 ovarian
KM12 colon = system: KM12 colon
NCI/ADR-RES ovarian = system: NCI/ADR-RES ovarian
MDA-N = system: MDA-N
M14 melanoma = system: M14 melanoma
MDA-MB-435 = system: MDA-MB-435
HL-60(TB) leukemia = system: HL-60(TB) leukemia
HCC-2998 colon = system: HCC-2998 colon
NCI-H23 lung = system: NCI-H23 lung
OVCAR-5 ovarian = system: OVCAR-5 ovarian
UACC-257 melanoma = system: UACC-257 melanoma
MCF7 breast = system: MCF7 breast
SR leukemia = system: SR leukemia
SK-OV-3 ovarian = system: SK-OV-3 ovarian
786-0 renal = system: 786-0 renal
OVCAR-8 ovarian = system: OVCAR-8 ovarian
COLO 205 colon = system: COLO 205 colon
EKVX NSCLC = system: EKVX NSCLC
CAKI-1 renal = system: CAKI-1 renal
ACHN renal = system: ACHN renal
HT29 colon = system: HT29 colon
SNB-75 CNS = system: SNB-75 CNS
A549 NSCLC = system: A549 NSCLC
OVCAR-4 ovarian = system: OVCAR-4 ovarian
A498 renal = system: A498 renal
IGROV1 ovarian = system: IGROV1 ovarian
CCRF-CEM leukemia = system: CCRF-CEM leukemia
SF-539 CNS = system: SF-539 CNS
NCI-H460 lung = system: NCI-H460 lung
SK-MEL-2 melanoma = system: SK-MEL-2 melanoma

SMILES: COc1ccc(-c2c3c(n(C4OC(CO)C(O)C(O)C4O)c(=S)c2C#N)CCCC3)cc1 (stereo not drawn)
- TGI (HCT-15 colon): > 100 µM
- TGI (MOLT-4 leukemia): > 100 µM
- TGI (PC-3 prostate): > 100 µM
- TGI (SF-295 CNS): > 100 µM
- TGI (UACC-62 melanoma): > 100 µM
- TGI (SK-MEL-5 melanoma): > 100 µM
- TGI (RXF 393 renal): > 100 µM
- TGI (LOX IMVI melanoma): > 100 µM
- TGI (HS 578T breast): > 100 µM
- TGI (HCT-116 colon): > 100 µM
- TGI (TK-10 renal): > 100 µM
- TGI (MALME-3M melanoma): > 100 µM
- TGI (T-47D breast): > 100 µM
- TGI (SW-620 colon): > 100 µM
- TGI (NCI-H226 lung): > 100 µM
- TGI (HOP-62 NSCLC): > 100 µM
- TGI (SN12C renal): > 100 µM
- TGI (MDA-MB-231 breast): > 100 µM
- TGI (OVCAR-3 ovarian): > 100 µM
- TGI (KM12 colon): > 100 µM
- TGI (NCI/ADR-RES ovarian): > 100 µM
- TGI (MDA-N): > 100 µM
- TGI (M14 melanoma): > 100 µM
- TGI (MDA-MB-435): > 100 µM
- TGI (HL-60(TB) leukemia): > 100 µM
- TGI (HCC-2998 colon): > 100 µM
- TGI (NCI-H23 lung): > 100 µM
- TGI (OVCAR-5 ovarian): > 100 µM
- TGI (UACC-257 melanoma): > 100 µM
- TGI (MCF7 breast): > 100 µM
- TGI (SR leukemia): > 100 µM
- TGI (SK-OV-3 ovarian): > 100 µM
- TGI (786-0 renal): > 100 µM
- TGI (OVCAR-8 ovarian): > 100 µM
- TGI (COLO 205 colon): > 100 µM
- TGI (EKVX NSCLC): > 100 µM
- TGI (CAKI-1 renal): > 100 µM
- TGI (ACHN renal): > 100 µM
- TGI (HT29 colon): > 100 µM
- TGI (SNB-75 CNS): 18.7 µM
- TGI (A549 NSCLC): > 100 µM
- TGI (OVCAR-4 ovarian): > 100 µM
- TGI (A498 renal): > 100 µM
- TGI (IGROV1 ovarian): > 100 µM
- TGI (CCRF-CEM leukemia): > 100 µM
- TGI (SF-539 CNS): > 100 µM
- TGI (NCI-H460 lung): > 100 µM
- TGI (SK-MEL-2 melanoma): > 100 µM
